Source: the NIST ThermoML archive (doi:10.1021/je020176b)
Numbers after ± are expanded uncertainties.

Legend:
[1] = Crystal; DTA
[2] = Molar enthalpy of transition or fusion; details: Crystal; DSC

SMILES: C[C@H]([C@@H](O)c1ccccc1)N(C)C [(+)-N-methylephedrine]
- Normal melting temperature [1]: 86.60 ± 2 °C
- Molar enthalpy of transition or fusion [2]: 7.3 ± 0.208 kcal/mol
